Experimental data: ChEMBL document CHEMBL2429785, “Substituted Benzylspiroindolin-2-one Analogues as Positive Allosteric Modulators of the Muscarinic Acetylcholine Receptor M1” (ACS Med Chem Lett, 2013)

How the values were obtained:
[1] = target: T1, Muscarinic acetylcholine receptor M1 (Homo sapiens) (UniProt P11229); experiment: Positive allosteric modulation at muscarinic acetylcholine receptor M1(unknown origin) relative to control
T1 sequence (whole entry): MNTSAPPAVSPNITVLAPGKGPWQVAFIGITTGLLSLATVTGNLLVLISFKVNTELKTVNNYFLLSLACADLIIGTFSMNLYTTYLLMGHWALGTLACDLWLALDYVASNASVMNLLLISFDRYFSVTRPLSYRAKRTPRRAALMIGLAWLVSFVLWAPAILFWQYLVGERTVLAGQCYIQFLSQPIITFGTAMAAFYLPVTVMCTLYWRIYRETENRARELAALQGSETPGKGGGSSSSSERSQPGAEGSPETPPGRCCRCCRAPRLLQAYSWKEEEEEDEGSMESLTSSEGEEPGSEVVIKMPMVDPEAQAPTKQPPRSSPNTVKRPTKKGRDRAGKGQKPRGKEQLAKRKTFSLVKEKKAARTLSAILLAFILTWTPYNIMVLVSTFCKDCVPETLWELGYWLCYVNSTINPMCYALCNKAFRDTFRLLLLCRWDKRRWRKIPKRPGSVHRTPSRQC

[2] = target: T2, Muscarinic acetylcholine receptor M1 (Homo sapiens, UniProt P11229); experiment: Positive allosteric modulation at muscarinic acetylcholine receptor M1(unknown origin)
T2 sequence (P11229 whole entry): T1 sequence (whole entry)

Emax [1] [%]	EC50 [2] [µM]	Compound
86	3.2	Cn1cc(-c2ccc(CN3C(=O)C4(OCCO4)c4ccccc43)c(F)c2)cn1
76	3.8	CN1CCC2(C1)C(=O)N(Cc1ccc(-c3cnn(C)c3)cc1F)c1ccccc12 (centres undefined)
